Columns and labels:
PD population = details: short term placebo controlled trial; cited from earlier work
[1] = Intranasal pharmacokinetics in CSF; type: in vivo, Sprague Dawley rats; details: 0.5 mg/kg IN, SD rats
Excerpt: (§1) The purpose of this example was to evaluate the in vivo distribution and function of aminosterols, such as Aminosterol 1436 and squalamine, following intranasal administration. This experiment relates to the amount of drug needed to obtain a therapeutic result, based on an IN route of administration. The results described below detail that aminosterols such as Aminosterol 1436 act at the level of the hypothalamus following in vivo administration, regardless of the route of administration.

[2] = Intranasal pharmacokinetics in plasma; type: in vivo, Sprague Dawley rats; details: plasma, 0.5 mg/kg IN dose, SD rats
Excerpt: as §1

[3] = test system: myenteric intrinsic primary afferent neurons (IPANs); assay: Whole-cell patch clamp of IPANs, divided hemi-dissection preparation of FVB PD mouse; type: cell-based
Procedure: Whole-cell Patch Clamp: Whole-cell patch clamp was performed on a hemi-dissected myenteric plexus preparation as previously described.
IPAN excitability: PD model mice have reduced IPAN excitability. To determine the mechanism by which squalamine stimulated intestinal motility, electrophysiological studies on single neurons within the intact myenteric plexus of PD mice and corresponding control animals were conducted using published methods. In this series of studies a mouse α-synuclein knock-out model that expressed four copies of human A53T α-synuclein driven by the endogenous α-synuclein promoter (FVB PD), with the control (FVB control) represented by a strain engineered to express two copies of the normal human α-synuclein protein, was used.
IPANs from FVB PD animals were less excitable than IPANs recorded from FVB controls. The sample AP threshold (mean SD (N)) was 46% smaller for FVB control (32.2±20.0 (16)) compared to FVB PD (59.2±46.1 (20)). The number of action potentials produced by a current 2× the threshold intensity was 145% larger, 3.9±5.1 (16) for FVB control versus 1.6±0.6 (19) for FVB PD. The area under of the curve for the sAHP was 42% smaller −49.5±63.7 (16) versus −85.5±78.2 (19). RMP was depolarized by 10% for the FVB control, −56±10 (16) versus −62±6 (20).
Myenteric Primary Afferent Neuron Excitation: Squalamine excites myenteric primary afferent neurons. The effect of squalamine on the excitability of an isolated intestinal segment from the FVB PD mouse was explored using divided hemi-dissection preparations so that neurons are exposed for only half the area of an opened small intestinal segment. In this experiment, the inquiry was whether squalamine influenced the activity of the IPAN through direct interaction or indirectly, by stimulating release of epithelial mediators that influenced IPAN behaviour. Addition of squalamine (30 μM) to Krebs buffer in either the epithelial or the myenteric plexus compartments of the divided hemi-dissection preparation increased IPAN excitability. […] Addition of squalamine decreased the area under the curve of the sAHP by 77% from 86.8±88.2 to 20.3±25.3 mV·s, and depolarised RMP by 12% from −62±7 to −54±6 mV.

[4] = test system: patients with PD and constipation; assay: Phase 2 trial Stage 2: bowel function under daily oral dosing (stool diary, PAC-QOL, PAC-SYM); type: in vivo, human; details: patients with baseline ≥1 CSBM/week
Procedure: Following successful screening, all subjects underwent a 14-day run-in period where the degree of constipation was assessed through a validated daily log (Zinsmeister et al. 2013) establishing baseline CSBMs/week. Subjects with an average of <3 CSBMs/week proceeded to dosing.
In Stage 2, 34 patients were evaluated.
The primary efficacy outcome variable was whether or not a subject was a “success” or “failure”. This is an endpoint based on subject diary entries for the “fixed dose” period prior to the endpoint assessment defined as average complete stool frequency increase by 1 or more over baseline, or 3 or more complete spontaneous stools/week. The subject was deemed a “success” if s/he met one or more of the criteria listed above, otherwise the subject was deemed a “failure”. The primary analysis was based on all subjects with a baseline assessment and an assessment at the end of the “fixed-dose” period and was a comparison of the proportion of successes with 0.10 (the null hypothesis corresponding to no treatment effect).

[5] = test system: colonic propagating contractile clusters (PCCs); assay: Ex vivo colon motility with intraluminal squalamine, control mouse strains
Procedure: Ex vivo colon motility: For the ex vivo colonic motility experiments, the colon was excised and placed within an organ-bath perfusion chamber filled with warmed, oxygenated Krebs buffer or physiological saline (35° C., 95% 02, 5% CO2). The colon was flushed and cannulated at the oral and anal ends to a manifold and syringe to allow inflow of oxygenated Krebs buffer (or physiological saline) or Krebs and squalamine and to maintain intraluminal pressure. The height of the inflow tube at baseline measurements was parallel to the height of the colon in the organ bath (1.1 cm). Mechanical threshold defined an inflow pressure great enough to generate a contraction in under 30 sec (1.8 cm). Recordings in the first portion of the study were measured at a mechanical threshold causing a pressure differential of 2 hPa (cm H2O). Inflow was raised 2-3 hPa above baseline and outflow was raised a minimum of 0.2 hPa above inflow. Motor patterns were recorded using a Microsoft LifeCam 3000 web camera or a Logitech Quickcam Pro camera positioned 7-8 cm above the tissue. Videos were recorded during a 20-minute Krebs control and a 20-minute Krebs+squalamine period in which solutions were added to the inflow syringe.
Spatiotemporal Maps: Video recordings were used to construct spatiotemporal maps (STmaps) using edge detection software. Parameters of motor patterns including, velocity, amplitude, and frequency were measured using ImageJ and Matlab (Version 12) software.
Statistical Analysis: Effects of squalamine on motility and IPAN excitability in WT and PD model mice were assessed in paired experiments following Krebs control and subsequent squalamine exposure. Unpaired comparisons were performed for experiments comparing PD control and PD model strains. Percent difference was calculated by (treatment-control)/control. Data are presented as mean±SEM. Ex vivo statistical comparisons were performed using paired or unpaired, two-tailed t-tests or 1-way ANOVA using Graphpad Prism software (Version 7.0). In vivo studies were analysed using 1-way and 2-way ANOVA. Statistical significance was determined when p<0.05.

A53T and WT mice = assay: In vivo fecal pellet output; set-up: species or system mouse
Procedure: In vivo fecal pellet output: Mice were subjected to the FPO test 1 day prior to the start of dosing with squalamine or vehicle (sterile water) (day 0). Mice were fasted for one hour and then given access to food one hour before FPO testing. On days 1-5 mice were fasted for one hour prior to oral gavage with vehicle or 20, 40, 80, or 120 mg/kg squalamine. Oral gavage occurred between 10:00 to 11:00 am daily. On day 5, the FPO test was performed 1 hour after the final dose was administered. Total number of stool pellets produced in the first 15 min and over a 60 min period was measured in each group. Stool water content was measured by comparing wet and dry weights of the stool.
In Vivo Fecal Pellet Output: Feeding of squalamine increased fecal pellet output, without substantially increasing water content, in vivo. To extend the ex vivo studies to the animal, both A53T and WT mice (N=10 mice/group/dose) were administered squalamine orally by gavage for 5 days (Day 1 to Day 5), at a range of doses from 0, 20, 40, 80 and 120 mg/kg. Fecal pellet output (FPO) within the first 15 minutes was measured following the gavage of vehicle control (on Day 0) or squalamine (on Day 5, at doses of 0, 20, 40, 80, and 120 mg/kg). There was no significant difference in the FPO in the first 15 min in WT and A53T mice between Days 0 and 5, in the groups receiving only vehicle (P>0.05). […] An increase in colonic motility should decrease the time of the stool within the colon and thereby increase the moisture content of the fecal pellets. […] Thus, squalamine appears to increase colonic transit in vivo.

[6] = test system: individuals with mild constipation; details: cited from earlier work

Compound: CCCCC(F)(F)[C@@]1(O)CC[C@H]2[C@@H](CC(=O)[C@@H]2CCCCCCC(=O)O)O1 [Lubiprostone]
- share of treated in whom effective (PD population): about 50%

Compound: CC(C)[C@@H](CC[C@@H](C)[C@H]1CC[C@H]2[C@@H]3[C@H](O)C[C@H]4C[C@@H](NCCCNCCCCN)CC[C@]4(C)[C@H]3CC[C@]12C)OS(=O)(=O)O.C[C@H](O)C(=O)O.O [squalamine lactate]
- presence in CSF [1]: No squalamine lactate or Aminosterol 1436 was found in CSF
- AUCInf [2]: 7863 ng·h/mL
- AUC_% Extrap_obs [2]: 32.7%
- AUClast [2]: 5296 ng·h/mL
- AUClast/D [2]: 10600 kg·ng·h/mL/mg
- Cmax [2]: 1001 ng/mL
- MRTInf_obs [2]: 7.12 h
- T1/2 [2]: 4.55 h
- Tmax [2]: 1.00 h

Compound: CC(C)[C@@H](CC[C@@H](C)[C@H]1CC[C@H]2[C@@H]3[C@H](O)C[C@H]4C[C@@H](NCCCNCCCCN)CC[C@]4(C)[C@H]3CC[C@]12C)OS(=O)(=O)O [squalamine]
- decrease of AP threshold ([3]; added to the epithelium): 44%
- decrease of sAHP AUC ([3]; added to the epithelium): 77%
- increase of number of APs at 2× threshold current ([3]; added to the epithelium): 87%
- number of APs at 2× threshold current ([3]; added to the epithelium, before 1.6±0.6): 3.1±0.7
- decrease of AP threshold ([3]; added to the myenteric plexus): 37%
- decrease of sAHP AUC ([3]; added to the myenteric plexus): 87%
- number of APs at 2× threshold current ([3]; added to the myenteric plexus, before 1.4±0.5): 4.4±2.8
- area under the curve of the sAHP ([3]; added to the myenteric plexus, before −71.9±60.1): −9.6±15.1 mV·s
- mean prokinetic dose [4]: 120 mg
- increase of PCC velocity ([5]; C57BL/6 (P<0.05)): 38%
- increase of PCC amplitude ([5]; C57BL/6 (P=0.27)): 1%
- increase of PCC frequency ([5]; C57BL/6 (P=0.27)): 51%
- PCC frequency ([5]; C57BL/6, control 0.007±0.001): 0.010±0.003 Hz
- PCC amplitude ([5]; C57BL/6, control 0.66±0.06): 0.70±0.07 cm
- PCC velocity ([5]; C57BL/6, control 1.31±0.10): 1.80±0.20 mm/s
- increase of PCC velocity ([5]; CD-1 (P<0.01)): 81%
- increase of PCC frequency ([5]; CD-1 (P=0.06)): 63%
- increase of PCC amplitude ([5]; CD-1 (P=0.56)): 12%
- increase of PCC velocity ([5]; Swiss Webster (P<0.0001)): 45%
- increase of PCC frequency ([5]; Swiss Webster (P<0.01)): 35%
- decrease of PCC amplitude ([5]; Swiss Webster (P=0.65)): 3%
- stool water content (A53T and WT mice; A53T mice, 80 and 120 mg/kg (P=0.023 and 0.0004)): significantly increased water content
- FPO in the first 15 min, Day 5 versus Day 0 (A53T and WT mice; A53T mice, oral gavage 5 days, 20, 40 and 80 mg/kg (P<0.005, P<0.0001, P<0.01)): significantly increased FPO
- fecal pellet output (A53T and WT mice; PD and wild type mice, 40 mg/kg/d for 5 days): increased their fecal pellet output
- stool water content (A53T and WT mice; WT mice, 80 mg/kg (P=0.025)): significantly increased water content
- FPO in the first 15 min, Day 5 versus Day 0 (A53T and WT mice; WT mice, oral gavage 5 days, 40 and 120 mg/kg (P<0.01 and P<0.05)): significantly increased FPO

Compound: polyethylene glycol [polyethylene glycol (Magrogol)]
- stool frequency and consistency [6]: shown to provide benefit

From patent publication US20240277732A1, “COMPOSITIONS AND METHODS FOR TREATING BRAIN-GUT DISORDERS” (Enterin, Inc., priority 2018, published 2024)
